Results published in PMC9000012, “Amorphous Inclusion Complexes: Molecular Interactions of Hesperidin and Hesperetin with HP-Β-CD and Their Biological Effects” (International Journal of Molecular Sciences, 2022).
≈ marks a conversion by molar mass, not a printed value. Entries after “also recorded” stand apart in the source; their conditions may differ. Read-outs that look alike come from different tables or passages of the source.

What was measured:
[1] = PAMPA GIT permeability assay; format: in vitro ADME
Protocol: (§1) In vitro gastrointestinal (GIT) and blood–brain barrier (BBB) permeability was studied using the PAMPA (Parallel Artificial Membrane Permeability Assay) model. The sandwich consists of two 96-well microfilter plates. The PAMPA system contains two chambers: the donor at the bottom and the acceptor chamber at the top. The chambers are separated by a 120 μm thick microfilter disc coated with a 20% (w/v) dodecane solution of a lecithin mixture (Pion, Inc.). The analyzed samples were prepared by dissolving an excess amount of pure compound and systems in water. In addition, the pure compound was dissolved in DMSO. The donor solution was adjusted to pH ≈ 6.8 for GIT application and to pH ≈ 7.4 for BBB application using 0.5 M NaOH. The plates were combined and then incubated for 4 h for both models in a humidity-saturated atmosphere with the temperature set at 37 °C. The apparent permeability coefficient (Papp) was calculated according to the following equation: Papp=−ln(1−CA/Cequilibrium)/S×(1/VD+1/VA)×t where VD is donor volume; VA is acceptor volume; Cequilibrium is equilibrium concentration, Cequilibrium=CD×VD+CA×VA/VD+VA; S is membrane area; and t is incubation time (in seconds).

[2] = PAMPA BBB permeability assay; format: in vitro ADME; details: for Papp at 4 h: PAMPA
Protocol: as §1

[3] = physchem; format: physicochemical; details: for improvement in solubility: by amorphous inclusion complexes with HP-β-CD; for solubility at 24 h: thermodynamic from solid
Protocol: Concentrations of Hed and Het during solubility, dissolution rate, and permeability studies were measured by high-performance liquid chromatography with the DAD detector (HPLC-DAD). In this study, a Shimadzu Nexera (Shimadzu Corp., Kyoto, Japan) equipped with SCL-40 system controller; DGU-403 degassing unit; LC-40B XR solvent delivery module; SIL-40C XR auto sampler; CTO-40C column oven; SPD-M40 photo diode array detector, was used. For the stationary phase, a Dr. Maisch ReproSil-Pur Basic-C18 100 Å column, 5 µm particle size, 250 × 4.60 mm (Dr. Maisch, Ammerbuch-Entringen, Germany), was used. The mobile phase was methanol/0.1% acetic acid (65:35 v/v). The mobile phase was vacuum-filtered through a 0.45 µm nylon filter (Phenomenex, CA, USA). The experimental conditions were as follows: 0.9 mL·min^−1 flow rate, wavelength 280 nm for Hed and 288 nm for Het, and the column temperature at 30 °C. The injection volume differed depending on the assay. […] The method duration time was 10 min.
A total of 0.1 M HCl was obtained from the analytical weighed amount in accordance with the BASF SE recommendations. Phosphate buffer at pH 6.8 was prepared according to the following description: in a 1000 mL volumetric flask, we placed 250 mL of 0.2 N potassium dihydrogen phosphate solution, then added 112 mL of 0.2 N sodium hydroxide solution and filled the mixture up to 1000 mL with distilled water. High-quality pure water was prepared using a Direct-Q 3 UV purification system (Millipore, Molsheim, France, model Exil SA 67120).
An excess number of obtained systems and physical mixtures was placed in a 10 mL glass tube; then, 5.0 mL of medium (water, HCl 0.1 N or phosphate buffer (pH 6.8)) was added. All samples were mixed using a vortex mixer for 30 s and left at room temperature for 24 h. The obtained solutions were filtered through a 0.2 μm nylon membrane filter (Sigma-Aldrich, St. Louis, MO, USA) and analyzed for Hed and Het content using the developed and validated the HPLC method. The analysis was performed in triplicate.

[4] = target: T1, BChE (Homo sapiens, UniProt P06276); assay: Butyrylcholinesterase (BChE) inhibition assay; format: biochemical
T1 construct: purchased Sigma Aldrich, Germany
T1 sequence (P06276 29-602, species assumed): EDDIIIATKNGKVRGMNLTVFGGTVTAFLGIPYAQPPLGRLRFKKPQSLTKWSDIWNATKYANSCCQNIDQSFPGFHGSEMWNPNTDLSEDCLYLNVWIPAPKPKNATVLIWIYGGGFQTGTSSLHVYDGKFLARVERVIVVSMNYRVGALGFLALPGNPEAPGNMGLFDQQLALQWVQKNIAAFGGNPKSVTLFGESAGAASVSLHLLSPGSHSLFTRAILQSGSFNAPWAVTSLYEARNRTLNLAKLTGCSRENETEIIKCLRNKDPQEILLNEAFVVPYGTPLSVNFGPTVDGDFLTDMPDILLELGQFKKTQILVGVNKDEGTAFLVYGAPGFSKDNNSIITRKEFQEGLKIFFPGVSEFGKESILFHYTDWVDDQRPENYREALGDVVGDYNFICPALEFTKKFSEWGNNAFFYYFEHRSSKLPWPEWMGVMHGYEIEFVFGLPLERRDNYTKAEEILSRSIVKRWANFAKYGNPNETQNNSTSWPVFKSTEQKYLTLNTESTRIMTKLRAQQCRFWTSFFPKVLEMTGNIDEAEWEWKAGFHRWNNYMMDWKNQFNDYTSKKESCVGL
Protocol: (§2) To assess the activity of Hed, Het, and systems, the spectrometric method according to the outlined procedure was applied. A Multiskan GO 1510 (Thermo Fisher Scientific, Vantaa, Finland) plate reader was used for measurements of 96-well plates of the maximum volume of 300 μL. The hydrolysis of acetylthiocholine/butyrylthiocholine caused a color change. The absorbance of the enzymes was measured at a wavelength of 412 nm, 10 min after pipetting on a microplate. The reaction mixture containing 0.1 mL of 0.3 mM 5,5-dithio-bis-(2-nitrobenzoic acid) (DTNB, Sigma Aldrich, Germany), 10 mM NaCl and 2 mM MgCl2·6H2O solution, 0.575 mL 50 mM Tris-HCl buffer (pH = 8.0), 25 µL of 0.28 units/mL AChE/BChE (Sigma Aldrich, Germany), and 0.2 mL of the tested system was measured at a wavelength of 405 nm and at a temperature of 22 °C. The measurement was conducted after 20 min (BChE) or 60 min (AChE) after adding all ingredients into a microplate. The blank sample contained Tris-HCl buffer instead of the tested compounds. All samples were analyzed in six independent replicates. The inhibitory activity of each enzyme was calculated with the use of following equation: Inhibition ability (%)=100−Ap−Abp×100/Ak−Ab where Ak is absorbance of control, Ab is the blank of the control, Ap is the absorbance of the sample, and Abp is the blank of the sample.

[5] = target: T2, AChE (Homo sapiens, UniProt P22303); assay: Acetylcholinesterase (AChE) inhibition assay; format: biochemical
T2 construct: purchased Sigma Aldrich, Germany
T2 sequence (P22303 32-614): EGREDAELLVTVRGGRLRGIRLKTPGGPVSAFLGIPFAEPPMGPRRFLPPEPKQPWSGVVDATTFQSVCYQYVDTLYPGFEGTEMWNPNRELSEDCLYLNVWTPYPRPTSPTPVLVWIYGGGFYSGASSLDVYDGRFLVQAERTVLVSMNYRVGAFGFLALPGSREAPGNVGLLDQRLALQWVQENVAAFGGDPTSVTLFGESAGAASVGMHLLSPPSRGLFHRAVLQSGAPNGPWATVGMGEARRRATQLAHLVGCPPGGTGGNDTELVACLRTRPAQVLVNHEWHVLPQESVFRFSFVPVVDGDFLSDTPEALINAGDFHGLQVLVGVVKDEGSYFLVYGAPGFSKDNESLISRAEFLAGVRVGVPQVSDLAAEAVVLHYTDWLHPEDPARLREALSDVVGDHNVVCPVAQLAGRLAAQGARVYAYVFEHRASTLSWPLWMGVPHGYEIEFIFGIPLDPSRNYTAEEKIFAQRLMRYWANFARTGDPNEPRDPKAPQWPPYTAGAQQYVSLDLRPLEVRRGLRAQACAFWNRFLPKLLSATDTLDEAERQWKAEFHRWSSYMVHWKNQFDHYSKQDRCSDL
Protocol: as §2

[6] = set-up: method as in doi:10.1016/j.lwt.2019.03.059; details: cited from earlier work

## COc1ccc([C@@H]2CC(=O)c3c(O)cc(O[C@@H]4O[C@H](CO[C@@H]5O[C@@H](C)[C@H](O)[C@@H](O)[C@H]5O)[C@@H](O)[C@H](O)[C@H]4O)cc3O2)cc1O [Hed, hesperidin]
[1]; PAMPA
  GIT PAMPA permeability, result in words: poorly absorbed
[1]; PAMPA, pH 6.8
  Papp at 4 h: 0.0554 ×10⁻⁶ cm/s
[2]; pH 7.4
  Papp at 4 h: 0.558 ×10⁻⁶ cm/s
[3]
  improvement in solubility: over 1000 times
[3]; pH 6.8, aqueous buffer
  solubility at 24 h: 9 ± 2 µg/mL (≈ 14.7 µM)
[3]; simulated gastric fluid
  solubility at 24 h: 8 ± 3 µg/mL (≈ 13.1 µM)
[3]; water
  solubility at 24 h: 9 ± 1 µg/mL (≈ 14.7 µM)
[4]
  BChE inhibition: 13.86 ± 1.62%
[5]
  AChE inhibition: 9.24 ± 0.81%

## COc1ccc([C@@H]2CC(=O)c3c(O)cc(O)cc3O2)cc1O [Het, hesperetin]
[1]; PAMPA, compound dissolved in DMSO, donor pH ≈ 6.8, 4 h, 37 °C, read-out: PAMPA GIT Papp
  Papp at 4 h: 9.61 ×10⁻⁶ cm/s
[1]; passive diffusion
  GIT PAMPA permeability, result in words: readily absorbed; also recorded: well absorbed
[2]; compound dissolved in DMSO, donor pH ≈ 7.4, 4 h, 37 °C, read-out: PAMPA BBB Papp
  Papp at 4 h: 5.58 ×10⁻⁶ cm/s
[2]; passive diffusion
  BBB PAMPA permeability, result in words: easily able to pass this biological barrier; also recorded: crosses the blood–brain barrier
[3]
  improvement in solubility: > 2000 times
[3]; pH 6.8, aqueous buffer
  solubility at 24 h: 15 ± 0.2 µg/mL (≈ 49.6 µM)
[3]; simulated gastric fluid
  solubility at 24 h: 6 ± 0.1 µg/mL (≈ 19.8 µM)
[3]; water
  solubility at 24 h: 8 ± 0.1 µg/mL (≈ 26.5 µM)
[4]
  BChE inhibition: 12.96 ± 3.15%
[6]; Het complex with HP-β-CD
  improved solubility: 467 fold
[6]; Het complex with β-CD
  improved solubility: 30 fold
